Literature values as cited in patent publication EP1941860A1, “Topical formulations” (ACO Hud Nordic AB, priority 2006, dated 2008).

Conditions: in prior art formulations

## CC(O)C(=O)O (stereo not shown) [lactic acid]
  concentration producing a stinging action: about 0.5 % by weight of the formulation
